Values of other authors, collected in US20060211763A1, “Treatment with Statin and Omega-3 Fatty Acids and a Combination Product Thereof” (priority 2005, published 2006).

What was measured:
[1] = tested on: patients with hyperlipidemia; details: 900 or 1800 mg/day EPA ethyl ester for 3 months added to 5-20 mg/day pravastatin or 5 mg/day simvastatin; vs baseline monotherapy
[2] = in vivo
[3] = tested on: patients with hyperlipemia; details: 10 mg/day atorvastatin 5 weeks (vs baseline)
[4] = tested on: patients with hypercholesterolemia; details: 40 mg/day lovastatin 6 weeks
[5] = then plus 2 g/day Omacor 5 weeks (vs atorvastatin alone; insignificant)
[6] = then combination with 6 g/day Omacor 6 weeks

For `CC/C=C\C/C=C\C/C=C\C/C=C\C/C=C\CCCC(=O)OCC` [EPA ethyl ester], the HDL-C levels [1] is given as “significantly increased” and the Triglyceride levels [1] is given as “significantly reduced”.

For `CC[C@H](C)C(=O)O[C@H]1C[C@H](O)C=C2C=C[C@H](C)[C@H](CC[C@@H](O)C[C@@H](O)CC(=O)O)[C@H]21` [pravastatin], the “Effect of food on absorption” value [2] is listed as “best absorbed without food”.

In the case of `CC(C)c1c(C(=O)Nc2ccccc2)c(-c2ccccc2)c(-c2ccc(F)cc2)n1CC[C@@H](O)C[C@@H](O)CC(=O)O` [atorvastatin], the HDL-C levels ([3]; then plus 2 g/day Omacor 5 weeks (vs atorvastatin alone)) is listed as “significantly increased”, the LDL-C levels [3, 5] is listed as “significantly decreased” and the Triglyceride levels [3, 5] is listed as “significantly decreased”.

In the case of `CC(C)n1c(/C=C/C(O)CC(O)CC(=O)O)c(-c2ccc(F)cc2)c2ccccc21` (stereo not drawn) [fluvastatin], the Bioavailability [2] is listed as “approximately 24%”.

For `CC[C@H](C)C(=O)O[C@H]1C[C@@H](C)C=C2C=C[C@H](C)[C@H](CC[C@@H]3C[C@@H](O)CC(=O)O3)[C@H]21` [lovastatin], the “Degradation in alkaline environment” value is listed as “converted to the acid form”, the HDL-C levels [4] is listed as “significant increases” and the LDL-C levels [4, 6] is listed as “significant decreases”. The Triglyceride levels [4, 6] was “significant decreases” and the Rate of absorption [2] was “about 30%”.
